Data: paper PMC1851987, “Identification of the Endogenous Key Substrates of the Human Organic Cation Transporter OCT2 and Their Implication in Function of Dopaminergic Neurons” (PLoS ONE, 2007)
Residue numbers refer to the chain shown, from its start. Names may count otherwise. Marks after values point to notes of the source that are not given here.

Key:
[1] = test system: SH-SY5Y cells; assay: MTT reduction cell viability assay, SH-SY5Y cells; format: cell-based, human
Method: (§1) Cell viability was assessed in HEK-293 cells, human dopaminergic neuroblastoma cells (SH-SY5Y) and human glioblastoma cells (HTZ-146) by the MTT test as described.[22] […] For indication of metabolic activity, cells were treated with MTT reagent (15 µl of 1 mg/ml stock solution per well) for 1 h, and after drying of culture plates for 1 h at 37°C, the resulting formazan dye was extracted with isopropanol/HCl (100 µl 0.04 mol/l per well) and absorbance was determined spectrophotometrically at 568 nm. Results were in agreement with the data obtained by the tryptan blue exclusion method (data not shown).

[2] = test system: HTZ-146 cells; assay: MTT reduction cell viability assay, HTZ-146 cells; format: cell-based, human
Method: as §1

[3] = test system: SH-SY5Y cells; assay: Uptake of cyclo(his-pro) and salsolinol into SH-SY5Y cells with transport inhibitors; format: cell-based, human; settings: substrates 10 µmol/l, 5 min; inhibitors 10 µmol/l (decynium-22 1 µmol/l)
Method: (§2) (D) Relative quantitative real-time expression of OCT2 mRNA in distinct areas of normal human brain and neuroepithelial tumors (TaqMan Assay) normalized to GAPDH.
(§3) For uptake experiments, cells were grown on polystyrene dishes of 60 mm diameter to at least 80% confluence. Prior to addition of test compounds, culture medium was replaced by 3 ml HEPES-modified Krebs buffer (140.0 mmol/l NaCl, 5.0 mmol/l KCl, 2.0 mmol/l CaCl2, 1.0 mmol/l MgCl2, 10.0 mmol/l HEPES, and 5.0 mmol/l D-glucose, adjusted to pH 7.40), and cells were left to equilibrate for 60 min at 37°C. Uptake was terminated after indicated times by washing cells with ice-cold buffer. Cells were lysed with 1 ml of 4 mmol/l perchloric acid and lysates subjected to LC-MS-MS quantification. Cellular protein content was determined after solubilization of perchloric acid precipitates with 1 ml of […] NaOH using the bicinchoninic assay (BCA Protein Assay Kit, Pierce).
(§4) Chromatographic separations were performed on Hypercarb (5 µm, 50×2.1 mm; Thermo Electron), Aquasil C18 (3 µm, 100×4.6 mm; Thermo Electron), or Hilic columns (5 µm, 100×3.0 mm; Waters Atlantis) by isocratic or gradient elution using 0.1% aqueous formic acid (A) and acetonitrile or methanol (B) as solvent system. For quantification, SRM transitions of a precursor ion [M+H]^+ into a specific fragment ion (peak area ratios relative to IS) were recorded in positive ESI mode at 1.0–1.5 mTorr collision pressure and 10–40 eV collision energy. External calibration curves were obtained from serial dilutions of the analyte in 4 mmol/l HClO4 by linear or logistic regression. Detection limit was at least 0.001 nmol/mg protein.

[4] = test system: HTZ-146 cells; assay: Uptake of cyclo(his-pro) and salsolinol into HTZ-146 cells with transport inhibitors; format: cell-based, human; settings: substrates 10 µmol/l, 5 min; inhibitors 10 µmol/l (decynium-22 1 µmol/l)
Method: as §2, §3, §4

[5] = test system: OCT2-transfected HEK-293 cells; assay: Intracellular metabolite N-methyl-salsolinol after salsolinol incubation, OCT2-transfected HEK-293 cells; format: in vitro ADME, human; settings: mean±s.e.m., n = 3
[6] = test system: SH-SY5Y cells; assay: Intracellular metabolite N-methyl-salsolinol after salsolinol incubation, SH-SY5Y cells; format: in vitro ADME, human; settings: mean±s.e.m., n = 3
Source text: (§5) Beyond its physiological neuromodulatory function, there is considerable interest in the pathophysiologic role of salsolinol. […] It has been hypothesized that especially N-methyl-salsolinol is etiologically involved in apoptotic nigral cell death in PD by promoting calcium-triggered disruption of mitochondrial permeability transition.[14]

[7] = test system: HTZ-146 cells; assay: Intracellular metabolite N-methyl-salsolinol after salsolinol incubation, HTZ-146 cells; format: in vitro ADME, human; settings: mean±s.e.m., n = 3
Source text: as §5

[8] = molecular target: T1, organic cation transporter OCT2 (wild-type 400R) (Homo sapiens, UniProt O15244, S270A); assay: Specific uptake into OCT2 (wild-type) transfected HEK-293 cells vs empty vector, LC-MS-MS; settings: 5 min of incubation with 10 µmol/l
T1 sequence (O15244 1-555 S270A): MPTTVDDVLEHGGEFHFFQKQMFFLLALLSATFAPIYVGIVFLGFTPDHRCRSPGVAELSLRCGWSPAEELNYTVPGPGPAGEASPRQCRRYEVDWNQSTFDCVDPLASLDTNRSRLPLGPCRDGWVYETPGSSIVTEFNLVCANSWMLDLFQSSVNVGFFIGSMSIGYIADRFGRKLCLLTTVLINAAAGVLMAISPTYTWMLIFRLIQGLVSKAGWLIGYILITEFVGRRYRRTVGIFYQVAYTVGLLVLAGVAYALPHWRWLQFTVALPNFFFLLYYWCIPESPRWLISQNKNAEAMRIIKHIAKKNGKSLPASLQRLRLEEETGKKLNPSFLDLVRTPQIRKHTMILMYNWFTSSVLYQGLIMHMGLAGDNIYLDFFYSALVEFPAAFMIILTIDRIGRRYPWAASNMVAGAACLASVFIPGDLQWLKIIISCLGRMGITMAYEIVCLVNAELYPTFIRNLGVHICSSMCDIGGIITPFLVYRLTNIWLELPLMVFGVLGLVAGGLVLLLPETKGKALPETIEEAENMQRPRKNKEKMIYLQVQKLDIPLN

[9] = molecular target: T1, organic cation transporter OCT2 (wild-type 400R); settings: cited from earlier work
[10] = molecular target: T2, norepinephrine transporter (NET) (Homo sapiens, UniProt P23975); assay: Specific uptake into norepinephrine transporter (NET) transfected HEK-293 cells; format: cell-based; settings: 10 µmol/l, 5 min incubation
T2 construct: expressed in transfected cells; host or cells: HEK-293, stably transfected; cDNA from C; Pifl (University of Vienna)
T2 sequence (P23975 whole entry): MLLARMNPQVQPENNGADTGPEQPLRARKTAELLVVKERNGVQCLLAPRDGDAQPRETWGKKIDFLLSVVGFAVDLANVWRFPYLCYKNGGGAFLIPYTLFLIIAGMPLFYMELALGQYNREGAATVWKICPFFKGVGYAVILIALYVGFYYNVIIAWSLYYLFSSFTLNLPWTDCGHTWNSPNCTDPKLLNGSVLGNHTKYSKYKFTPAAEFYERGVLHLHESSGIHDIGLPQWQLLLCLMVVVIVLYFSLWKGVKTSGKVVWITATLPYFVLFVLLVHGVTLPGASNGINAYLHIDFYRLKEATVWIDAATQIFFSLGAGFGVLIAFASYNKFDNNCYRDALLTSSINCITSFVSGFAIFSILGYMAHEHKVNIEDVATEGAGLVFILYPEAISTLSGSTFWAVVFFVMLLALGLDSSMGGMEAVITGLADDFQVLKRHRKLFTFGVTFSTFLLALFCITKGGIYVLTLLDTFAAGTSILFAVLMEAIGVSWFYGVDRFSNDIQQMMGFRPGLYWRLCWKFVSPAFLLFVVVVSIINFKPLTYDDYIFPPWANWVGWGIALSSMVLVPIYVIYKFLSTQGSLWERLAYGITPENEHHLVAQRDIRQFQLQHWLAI
Source text: Pifl (University of Vienna).
1. Burnette WB, Bailey MD, Kukoyi S, Blakely RD, Trowbridge CG, et al. (1996) Human norepinephrine transporter kinetics using rotating disk electrode voltammetry. Anal Chem 68: 2932–2938. (0.90 MB TIF) Click here for additional data file.

[11] = substrate: O=C1NC(Cc2c[nH]cn2)C(=O)N2CCCC12; assay: Specific uptake into OCT1-transfected HEK-293 cells; format: cell-based, human; settings: other: specific uptake, 1 min of loading, mean (s.e.m.); pH 7.4; 37.0 °C
[12] = substrate: O=C1NC(Cc2c[nH]cn2)C(=O)N2CCCC12; assay: Specific uptake into EMT-transfected HEK-293 cells; format: cell-based, human; settings: other: specific uptake, 1 min of loading, mean (s.e.m.); pH 7.4; 37.0 °C
[13] = substrate: O=C1NC(Cc2c[nH]cn2)C(=O)N2CCCC12; assay: cells, lysate or membranes; settings: mean (s.e.m.), pH 7.4, 37.0 °C
[14] = 48 h, non-pretreated, read-out: EC50 (95% confidence interval), cell viability
[15] = 48 h incubation with 10 µmol/l salsolinol
[16] = 48 h incubation with 100 µmol/l salsolinol
[17] = other: specific uptake, 1 min of loading, n = 3

N[C@@H](CCC(=O)O)C(=O)O [glutamate, reference compound]
EC50 [1, 14]: 389 µM | EC50 [2, 14]: 585 µM

Fc1ccc(C(OCCN2CCN(CCCc3ccccc3)CC2)c2ccc(F)cc2)cc1 [GBR12909]
effect of coincubated inhibitor on uptake of cyclo(his-pro) and salsolinol [3]: not different from control conditions | effect of coincubated inhibitor on uptake of cyclo(his-pro) and salsolinol [4]: not different from control conditions

CC(COc1ccccc1)N(CCCl)Cc1ccccc1 (stereo not shown) [phenoxybenzamine]
effect of coincubated inhibitor on uptake of cyclo(his-pro) and salsolinol [3]: almost abolished | effect of coincubated inhibitor on uptake of cyclo(his-pro) and salsolinol [4]: almost abolished

CCN1/C(=C/c2ccc3ccccc3[n+]2CC)C=Cc2ccccc21.[I-] [decynium-22]
effect of coincubated inhibitor on uptake of cyclo(his-pro) and salsolinol [3]: almost abolished | effect of coincubated inhibitor on uptake of cyclo(his-pro) and salsolinol [4]: almost abolished

CNCCCN1c2ccccc2CCc2ccccc21 [desipramine]
effect of coincubated inhibitor on uptake of cyclo(his-pro) and salsolinol [3]: not different from control conditions | effect of coincubated inhibitor on uptake of cyclo(his-pro) and salsolinol [4]: not different from control conditions

C[C@]12N[C@H](Cc3ccccc31)c1ccccc12 [(+)-MK-801, reference compound]
effect on cell death caused by glutamate as well as salsolinol ([1]; (+)-MK-801 10 µmol/l present): attenuated | effect on cell death caused by glutamate as well as salsolinol ([2]; (+)-MK-801 10 µmol/l present): attenuated

CC1c2cc(O)c(O)cc2CCN1C (stereo not shown) [N-methyl-salsolinol]
intracellular concentration of the metabolite N-methyl-salsolinol [5, 15]: 0.89±0.06 nmol/mg protein | intracellular concentration of the metabolite N-methyl-salsolinol [5, 16]: 7.56±0.41 nmol/mg protein | intracellular concentration of the metabolite N-methyl-salsolinol [6, 15]: 0.18±0.01 nmol/mg protein | intracellular concentration of the metabolite N-methyl-salsolinol [6, 16]: 1.28±0.11 nmol/mg protein | intracellular concentration of the metabolite N-methyl-salsolinol [7, 15]: 0.17±0.01 nmol/mg protein | intracellular concentration of the metabolite N-methyl-salsolinol [7, 16]: 1.16±0.06 nmol/mg protein | uptake rate relative to salsolinol [8]: about two-thirds

NCCc1ccc(O)c(O)c1 [dopamine]
OCT2-mediated transport [9]: no significant OCT2-mediated transport

NCCc1ccc(O)cc1 [tyramine, reference compound]
substrate of NET (specific uptake) [10]: excellent NET substrate

B1: OCT1 (Homo sapiens) (protein)
chain: MPTVDDILEQVGESGWFQKQAFLILCLLSAAFAPICVGIVFLGFTPDHHCQSPGVAELSQRCGWSPAEELNYTVPGLGPAGEAFLGQCRRYEVDWNQSALSCVDPLASLATNRSHLPLGPCQDGWVYDTPGSSIVTEFNLVCADSWKLDLFQSCLNAGFLFGSLGVGYFADRFGRKLCLLGTVLVNAVSGVLMAFSPNYMSMLLFRLLQGLVSKGNWMAGYTLITEFVGSGSRRTVAIMYQMAFTVGLVALTGLAYALPHWRWLQLAVSLPTFLFLLYYWCVPESPRWLLSQKRNTEAIKIMDHIAQKNGKLPPADLKMLSLEEDVTEKLSPSFADLFRTPRLRKRTFILMYLWFTDSVLYQGLILHMGATSGNLYLDFLYSALVEIPGAFIALITIDRVGRIYPMAMSNLLAGAACLVMIFISPDLHWLNIIIMCVGRMGITIAIQMICLVNAELYPTFVRNLGVMVCSSLCDIGGIITPFIVFRLREVWQALPLILFAVLGLLAAGVTLLLPETKGVALPETMKDAENLGRKAKPKENTIYLKVQTSEPSGT
notes: The cDNAs encoding the organic cation transporters; expressed in transfected cells; host or cells: HEK-293, stably transfected, pcDNA3
Km [11]: 655 (191) μmol/l

B2: EMT (Homo sapiens) (protein)
chain: MPSFDEALQRVGEFGRFQRRVFLLLCLTGVTFAFLFVGVVFLGTQPDHYWCRGPSAAALAERCGWSPEEEWNRTAPASRGPEPPERRGRCQRYLLEAANDSASATSALSCADPLAAFPNRSAPLVPCRGGWRYAQAHSTIVSEFDLVCVNAWMLDLTQAILNLGFLTGAFTLGYAADRYGRIVIYLLSCLGVGVTGVVVAFAPNFPVFVIFRFLQGVFGKGTWMTCYVIVTEIVGSKQRRIVGIVIQMFFTLGIIILPGIAYFIPNWQGIQLAITLPSFLFLLYYWVVPESPRWLITRKKGDKALQILRRIAKCNGKYLSSNYSEITVTDEEVSNPSFLDLVRTPQMRKCTLILMFAWFTSAVVYQGLVMRLGIIGGNLYIDFFISGVVELPGALLILLTIERLGRRLPFAASNIVAGVACLVTAFLPEGIAWLRTTVATLGRLGITMAFEIVYLVNSELYPTTLRNFGVSLCSGLCDFGGIIAPFLLFRLAAVWLELPLIIFGILASICGGLVMLLPETKGIALPETVDDVEKLGSPHSCKCGRNKKTPVSRSHL
notes: as for B1
Km [12]: 126 (38) μmol/l

B3: organic cation transporter OCT2 (wild-type 400R) (Homo sapiens; S270A) (protein)
chain: T1 sequence (O15244 1-555 S270A)
Km [13, 17]: 74 (12) µmol/l | Vmax [13, 17]: 0.003 µmol/min/mg | Vmax/Km [13, 17]: 41 µl/mg protein/min

B4: OCT2 variant M165I (Homo sapiens; M165I/S270A) (protein)
chain: T1 sequence (O15244 1-555 S270A) with M165I
Km ([13]; other: 1 min of loading): 78 (15) µmol/l | Vmax ([13]; other: 1 min of loading): 0.0029 µmol/min/mg

B5: OCT2 variant A270S (Homo sapiens) (protein)
chain: T1 sequence (O15244 1-555 S270A) with A270S
Km ([13]; other: 1 min of loading): 75 (11) µmol/l | Vmax ([13]; other: 1 min of loading): 0.0032 µmol/min/mg

B6: OCT2 variant R400C (Homo sapiens; R400C/S270A) (protein)
chain: T1 sequence (O15244 1-555 S270A) with R400C
Km ([13]; other: 1 min of loading): 51 (6)^# µmol/l | Vmax ([13]; other: 1 min of loading): 0.001 µmol/min/mg

B7: OCT2 variant K432Q (Homo sapiens; K432Q/S270A) (protein)
chain: T1 sequence (O15244 1-555 S270A) with K432Q
Km ([13]; other: 1 min of loading): 78 (12) µmol/l | Vmax ([13]; other: 1 min of loading): 0.0031 µmol/min/mg
